Reference: the supplement of paper PMC10307832

Key:
Assay in all cases: relative viability (nuclei count vs DMSO), 5 days (fraction); higher = more cells survive
[1] = compound: CC(C)C[C@@H](C(=O)N[C@H](C(=O)OC1CCCC1)c1ccccc1)[C@H](O)C(=O)NO [Tosedostat] + Nc1nc2[nH]cc(CCc3ccc(C(=O)N[C@@H](CCC(=O)O)C(=O)O)cc3)c2c(=O)[nH]1 [Pemetrexed] (partner 0.2 µM)
Procedure, shortened: (§1)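 Lung cancer cell lines, seeded in 1536-well plates, were treated the following day by pin tool with a single drug or with five library-drug doses (not always all listed) in √10 steps on top of a fixed anchor-drug dose. Cells were fixed and nuclei stained in one step after 5 days, and nuclei were counted. Relative viability is the nuclei count for treated wells divided by that for vehicle wells, reported as medians of duplicate plates.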

[2] = compound: CC1=NN=C(O1)C2=NN=C(C=C2)N3CCC(CC3)OC4=C(C=CC(=C4)F)Cl + CC(=O)Nc1cccc(-n2c(=O)n(C3CC3)c(=O)c3c(Nc4ccc(I)cc4F)n(C)c(=O)c(C)c32)c1 [Trametinib] (partner 0.02 µM)
Procedure, shortened: as §1

[3] = compound: CC1=NN=C(O1)C2=NN=C(C=C2)N3CCC(CC3)OC4=C(C=CC(=C4)F)Cl + COc1cc2c(Oc3ccc(NC(=O)C4(C(=O)Nc5ccc(F)cc5)CC4)cc3F)ccnc2cc1OCCCN1CCOCC1 [Foretinib] (partner 0.25 µM)
Procedure, shortened: as §1

[4] = compound: CC1=NN=C(O1)C2=NN=C(C=C2)N3CCC(CC3)OC4=C(C=CC(=C4)F)Cl + Nc1nc2[nH]cc(CCc3ccc(C(=O)N[C@@H](CCC(=O)O)C(=O)O)cc3)c2c(=O)[nH]1 [Pemetrexed] (partner 0.2 µM)
Procedure, shortened: as §1

Cell Line | relative viability ([1]; first compound 0.02 µM) | relative viability ([1]; first compound 0.06325 µM) | relative viability ([1]; first compound 0.2 µM) | relative viability ([1]; first compound 0.6325 µM) | relative viability ([1]; first compound 2 µM) | relative viability ([2]; first compound 0.253 µM) | relative viability ([2]; first compound 0.8 µM) | relative viability ([2]; first compound 2.53 µM) | relative viability ([2]; first compound 8 µM) | relative viability ([3]; first compound 0.253 µM) | relative viability ([3]; first compound 0.8 µM) | relative viability ([3]; first compound 2.53 µM) | relative viability ([3]; first compound 8 µM) | relative viability ([4]; first compound 0.253 µM) | relative viability ([4]; first compound 0.8 µM) | relative viability ([4]; first compound 2.53 µM) | relative viability ([4]; first compound 8 µM)
NCI-H322M | 0.61 | 0.628 | 0.596 | 0.666 | 0.652 | 0.563 | 0.487 | 0.477 | 0.52 | 0.937 | 0.908 | 1.03 | 0.95 | 0.629 | 0.381 | 0.578 | 0.592
NCI-H1944 | 0.626 | 0.656 | 0.84 | 0.619 | 0.819 | 0.339 | 0.324 | 0.37 | 0.342 | 0.464 | 0.463 | 0.473 | 0.498 | 0.372 | 0.328 | 0.493 | 0.369
NCI-H1793 | 0.659 | 0.832 | 0.838 | 0.849 | 0.598 | 0.434 | 0.511 | 0.509 | 0.403 | 0.448 | 0.639 | 0.565 | 0.621 | 0.843 | 0.835 | 0.977 | 0.79
NCI-H661 | 0.959 | 0.9 | 0.97 | 0.984 | 0.994 | 0.489 | 0.472 | 0.429 | 0.379 | 0.912 | 0.845 | 0.837 | 0.731 | 0.736 | 0.695 | 0.676 | 0.652
EKVX | 0.462 | 0.427 | 0.547 | 0.462 | 0.477 | 0.26 | 0.254 | 0.26 | 0.286 | 0.41 | 0.382 | 0.382 | 0.36 | 0.269 | 0.263 | 0.343 | 0.348
NCI-H358 | 0.173 | 0.2 | 0.164 | 0.143 | 0.161 | 0.131 | 0.137 | 0.146 | 0.124 | 0.512 | 0.393 | 0.512 | 0.41 | 0.148 | 0.167 | 0.139 | 0.162
EPLC-272H | 0.47 | 0.269 | 0.306 | 0.241 | 0.142 | 0.267 | 0.247 | 0.291 | 0.309 | 0.713 | 0.604 | 0.638 | 0.637 | 0.313 | 0.339 | 0.285 | 0.371
NCI-H1666 | 0.888 | 0.831 | 0.88 | 0.991 | 0.963 | 0.764 | 0.761 | 0.834 | 0.834 | 0.496 | 0.47 | 0.459 | 0.412 | 0.735 | 0.69 | 0.741 | 0.751
NCI-H1395 | 1.04 | 1.04 | 0.848 | 0.927 | 0.725 | 0.963 | 0.978 | 0.89 | 1 | 0.939 | 0.901 | 0.969 | 0.893 | 0.69 | 0.668 | 0.831 | 0.812
